Measurements from patent US10898481B2 (priority 2018, dated 2021).

Key:
[1] = molecular target: hADORA1/CHO (hA1 expressing) cells (Homo sapiens (Human), UniProt P30542); experiment: cell-based; conditions: FLIPR inhibition, 10 μM adenosine, read-out: cAMP & FLIPR IC50 (nM) hA1
hA2a/CHO = hA2a/CHO (Homo sapiens (Human), UniProt P29274); experiment: cAMP inhibition assay in hA2a/CHO cells, 10 μM adenosine; assay type: cell-based; conditions: read-out: cAMP & FLIPR IC50 (nM) hA2a;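 note: compounds added to cells 30 min ahead of adenosine, then a further 30 min at 37 °C with adenosine before cAMP detection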
Sequence of hA2a/CHO (P29274 whole entry): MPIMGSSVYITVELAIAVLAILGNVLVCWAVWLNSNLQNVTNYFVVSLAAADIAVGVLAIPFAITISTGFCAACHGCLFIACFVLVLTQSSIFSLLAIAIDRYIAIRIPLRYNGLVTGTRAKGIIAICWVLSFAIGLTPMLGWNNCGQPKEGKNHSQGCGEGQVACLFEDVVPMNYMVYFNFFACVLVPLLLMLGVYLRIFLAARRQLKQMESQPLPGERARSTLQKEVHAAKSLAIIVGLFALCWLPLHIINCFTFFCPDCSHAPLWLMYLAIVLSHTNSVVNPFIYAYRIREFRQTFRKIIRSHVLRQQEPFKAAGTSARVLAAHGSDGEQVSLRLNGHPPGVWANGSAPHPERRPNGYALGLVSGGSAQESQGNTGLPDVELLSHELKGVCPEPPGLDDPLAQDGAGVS
Protocol: (§1) hA2a/CHO, hA2b/CHO, hA3/CHO and mA2a/CHO (Genscript) were plated at 5×10^3 cells/well into 384-well polystyrene plates at the day of experiment. Compounds were pre-incubated with cells for 30 min at 37° C., 5% CO2. Then 10 μM adenosine was added to the cells and incubated for 30 min at 37° C., 5% CO2. Detection reagent (CISBIO) was added and the plates were incubated for 60 min at room temperature. The signal was captured by Envision.

mA2a/CHO = mA2a/CHO (Mus musculus (Mouse), UniProt Q60613); experiment: cAMP inhibition assay in mA2a/CHO cells, 10 μM adenosine; assay type: cell-based; conditions: read-out: cAMP & FLIPR IC50 (nM) mA2a;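 note: compounds preincubated 30 min at 37 °C before the adenosine challenge, then 30 min further stimulation, readout after 60 min detection reagent incubation at room temperature in 384-well plates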
Sequence of mA2a/CHO (Q60613 whole entry): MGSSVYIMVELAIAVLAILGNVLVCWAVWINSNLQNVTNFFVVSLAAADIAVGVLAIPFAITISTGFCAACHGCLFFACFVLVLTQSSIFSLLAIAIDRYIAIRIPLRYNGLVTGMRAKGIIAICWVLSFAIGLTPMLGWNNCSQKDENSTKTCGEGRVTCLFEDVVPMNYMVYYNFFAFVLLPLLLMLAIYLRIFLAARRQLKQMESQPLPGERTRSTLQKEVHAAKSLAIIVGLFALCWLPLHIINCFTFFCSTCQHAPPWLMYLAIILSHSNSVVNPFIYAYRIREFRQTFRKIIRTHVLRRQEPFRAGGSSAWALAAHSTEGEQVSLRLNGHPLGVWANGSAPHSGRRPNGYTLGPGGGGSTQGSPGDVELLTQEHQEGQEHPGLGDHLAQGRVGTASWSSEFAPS
Protocol: as §1

hA2b/CHO = hA2b/CHO (Homo sapiens (Human), UniProt P29275); experiment: cAMP inhibition assay in hA2b/CHO cells, 10 μM adenosine; assay type: cell-based; conditions: read-out: cAMP & FLIPR IC50 (nM) hA2b;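 note: cells exposed to compound 30 min at 37 °C, then stimulated with adenosine a further 30 min, cAMP read after 60 min at room temperature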
Sequence of hA2b/CHO (P29275 whole entry): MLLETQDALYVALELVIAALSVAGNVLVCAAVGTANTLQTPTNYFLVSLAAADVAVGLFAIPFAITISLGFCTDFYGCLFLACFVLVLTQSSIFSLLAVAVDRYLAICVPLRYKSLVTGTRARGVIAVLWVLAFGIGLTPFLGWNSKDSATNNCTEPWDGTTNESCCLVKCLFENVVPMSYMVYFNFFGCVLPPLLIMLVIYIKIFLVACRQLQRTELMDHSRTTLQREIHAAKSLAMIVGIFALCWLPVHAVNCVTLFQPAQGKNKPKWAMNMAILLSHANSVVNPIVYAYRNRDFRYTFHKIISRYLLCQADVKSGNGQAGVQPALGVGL
Protocol: as §1

Sequence of hADORA1/CHO (hA1 expressing) cells (P30542 whole entry): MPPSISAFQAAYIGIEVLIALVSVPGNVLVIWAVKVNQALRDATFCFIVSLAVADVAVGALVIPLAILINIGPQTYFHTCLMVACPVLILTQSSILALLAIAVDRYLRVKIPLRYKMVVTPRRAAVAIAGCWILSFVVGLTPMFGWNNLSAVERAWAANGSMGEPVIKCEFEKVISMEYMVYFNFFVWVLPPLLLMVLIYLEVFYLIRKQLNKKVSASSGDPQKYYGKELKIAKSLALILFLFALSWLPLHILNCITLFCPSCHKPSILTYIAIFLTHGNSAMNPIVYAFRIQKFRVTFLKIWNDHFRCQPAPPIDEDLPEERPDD

Structure (SMILES)	IC50 [1] [nM]	IC50 (hA2a/CHO) [nM]	IC50 (mA2a/CHO) [nM]	IC50 (hA2b/CHO) [nM]
Cc1cnc2ccc(-c3nc(C(=O)N[C@@H]4CCN(C)C4)c(N)nc3-c3ccc(F)cc3)cn12 [Example 144, (R)-3-amino-5-(4-fluorophenyl)-6-(3-methylimidazo[1,2-a]pyridin-6-yl)-N-(1-methylpyrrolidin-3-yl)pyrazine-2-carboxamide]	10000	4.6	61	1410
Cc1cnc2ccc(-c3nc(C(=O)NC[C@@H](C)O)c(N)nc3-c3ncco3)cn12 [Example 145, (R)-3-amino-N-(2-hydroxypropyl)-6-(3-methylimidazo[1,2-a]pyridin-6-yl)-5-(oxazol-2-yl)pyrazine-2-carboxamide]	10000	32	205	789
Cc1cnc2ccc(-c3nc(C(=O)NC[C@H](C)O)c(N)nc3-c3ncco3)cn12 [Example 146, (S)-3-amino-N-(2-hydroxypropyl)-6-(3-methylimidazo[1,2-a]pyridin-6-yl)-5-(oxazol-2-yl)pyrazine-2-carboxamide]	10000	8.5	101	256
Cc1cnc2ccc(-c3nc(C(=O)NCCOC(F)(F)F)c(N)nc3-c3ncco3)cn12 [Example 148, 3-amino-6-(3-methylimidazo[1,2-a]pyridin-6-yl)-5-(oxazol-2-yl)-N-(2-(trifluoromethoxy)ethyl)pyrazine-2-carboxamide]	69	0.5	1.1	99
COCCCNC(=O)c1nc(-c2ccc3ncc(C)n3c2)c(-c2ncco2)nc1N [Example 149, 3-amino-N-(3-methoxypropyl)-6-[3-methylimidazo[1,2-a]pyridin-6-yl]-5-(1,3-oxazol-2-yl)pyrazine-2-carboxamide]	1560	1.5	7.8	85
Cc1cnc2ccc(-c3nc(C(=O)NCCS(C)(=O)=O)c(N)nc3-c3ccc(F)cc3)cn12 [Example 150, 3-amino-5-(4-fluorophenyl)-6-(3-methylimidazo[1,2-a]pyridin-6-yl)-N-(2-(methylsulfonyl)ethyl)pyrazine-2-carboxamide]	26	3.4	6.5	108
CO[C@H]1C[C@H](NC(=O)c2nc(-c3ccc4ncc(C)n4c3)c(-c3ncco3)nc2N)C1 [Example 151, 3-amino-N-((1r,3r)-3-methoxycyclobutyl)-6-(3-methylimidazo [1,2-a]pyridin-6-yl)-5-(oxazol-2-yl) pyrazine-2-carboxamide]	10000	0.8	12	193
CO[C@H]1C[C@@H](NC(=O)c2nc(-c3ccc4ncc(C)n4c3)c(-c3ncco3)nc2N)C1 [Example 152, 3-amino-N-((1s,3s)-3-methoxycyclobutyl)-6-(3-methylimidazo [1,2-a]pyridin-6-yl)-5-(oxazol-2-yl)pyrazine-2-carboxamide]	10000	5.1	43	369
Cc1cnc2ccc(-c3nc(C(=O)NCCN(C)C)c(N)nc3-c3ncco3)cn12 [Example 153, 3-amino-N-(2-(dimethylamino)ethyl)-6-(3-methylimidazo[1,2-a]pyridin-6-yl)-5-(oxazol-2-yl)pyrazine-2-carboxamide]	10000	19	120	592
Cc1cnc2ccc(-c3nc(C(=O)NCC4(N(C)C)CC4)c(N)nc3-c3ccc(F)cc3)cn12 [Example 154, 3-amino-N-[[1-(dimethylamino)cyclopropyl]methyl]-5-(4-fluorophenyl)-6-[3-methylimidazo[1,2-a]pyridin-6-yl]pyrazine-2-carboxamide]	10000	11	121	1150
Cc1cnc2ccc(-c3nc(C(=O)NCC4CC4)c(N)nc3-c3ncco3)cn12 [Example 155, 3-amino-N-(cyclopropylmethyl)-6-(3-methylimidazo[1,2-a]pyridin-6-yl)-5-(oxazol-2-yl)pyrazine-2-carboxamide]	3650	0.6	12	188
Cc1cnc2ccc(-c3nc(CNC(=O)[C@@H]4CCCN4C)c(N)nc3-c3ccc(F)cc3)cn12 [Example 156, (2S)—N-[[3-amino-5-(4-fluorophenyl)-6-[3-methylimidazo[1,2-a]pyridin-6-yl]pyrazin-2-yl]methyl]-1-methylpyrrolidine-2-carboxamide]	83	4.4	41	1200
Cc1cnc2ccc(-c3nc(C(=O)NCCn4cccn4)c(N)nc3-c3ncco3)cn12 [Example 158, N-(2-(1H-pyrazol-1-yl)ethyl)-3-amino-6-(3-methylimidazo[1,2-a]pyridin-6-yl)-5-(oxazol-2-yl)pyrazine-2-carboxamide]	756	1.27	3.46	167
COC[C@@H](C)NC(=O)c1nc(-c2ccc3ncc(C)n3c2)c(-c2ncco2)nc1N [Example 159, (R)-3-amino-N-(1-methoxypropan-2-yl)-6-(3-methylimidazo[1,2-a]pyridin-6-yl)-5-(oxazol-2-yl)pyrazine-2-carboxamide]	> 10000	5.31	13.2	1640
Cc1cnc2ccc(-c3nc(C(=O)NC[C@@H]4CC(F)(F)CN4C)c(N)nc3-c3ncco3)cn12 [Example 161, (S)-3-amino-N-((4,4-difluoro-1-methylpyrrolidin-2-yl)methyl)-6-(3-methylimidazo[1,2-a]pyridin-6-yl)-5-(oxazol-2-yl)pyrazine-2-carboxamide]	34	0.95	0.8	98
Cc1cnc2ccc(-c3nc(C(=O)NC[C@H]4CC(F)(F)CN4C)c(N)nc3-c3ncco3)cn12 [Example 162, (R)-3-amino-N-((4,4-difluoro-1-methylpyrrolidin-2-yl)methyl)-6-(3-methylimidazo[1,2-a]pyridin-6-yl)-5-(oxazol-2-yl)pyrazine-2-carboxamide]	794	0.71	8.12	147
Cc1cnc2ccc(-c3nc(C(=O)NCc4cccc(N5CC6(CCN6C)C5)n4)c(N)nc3-c3ncco3)cn12 [Example 171, 3-amino-N-[(6-[1-methyl-1,6-diazaspiro[3.3]heptan-6-yl]pyridin-2-yl)methyl]-6-[3-methylimidazo[1,2-a]pyridin-6-yl]-5-(1,3-oxazol-2-yl)pyrazine-2-carboxamide]	589	1	15	228
Cc1cnc2ccc(-c3nc(C(=O)N[C@H]4CCN(C)C4)c(N)nc3-c3ccc(F)cc3)cn12 [Example 200-2, (S)-3-amino-5-(4-fluorophenyl)-6-(3-methylimidazo[1,2-a]pyridin-6-yl)-N-(1-methylpyrrolidin-3-yl)pyrazine-2-carboxamide]	> 10000	12	169	3540
